SMILES strings stand for the structures.

Chain of GST-tagged recombinant human TYRO3 kinase domain (Q06418 518-790): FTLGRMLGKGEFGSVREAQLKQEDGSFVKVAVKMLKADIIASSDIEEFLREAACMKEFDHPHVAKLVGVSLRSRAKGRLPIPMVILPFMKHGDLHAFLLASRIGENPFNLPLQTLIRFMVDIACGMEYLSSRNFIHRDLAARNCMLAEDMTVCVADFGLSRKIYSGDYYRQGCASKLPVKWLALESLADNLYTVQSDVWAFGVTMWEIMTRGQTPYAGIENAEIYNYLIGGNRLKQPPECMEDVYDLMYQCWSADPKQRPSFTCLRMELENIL

This test has as its target GST-tagged recombinant human TYRO3 kinase domain (Homo sapiens (Human), UniProt Q06418). Nature of the test: TYRO3 Enzyme Assay (LanthaScreen Eu Kinase Binding, TR-FRET). Particulars: averaged IC50. On the procedure:
Compounds of Formula I were screened for their ability to inhibit TYRO3 kinase using Invitrogen's LanthaScreen™ Eu Kinase Binding technology. […] After a 60-minute incubation at 22° C., the reaction was measured using a PerkinElmer EnVision multimode plate reader via TR-FRET dual wavelength detection, and the percent of control (POC) calculated using a ratiometric emission factor. […] The POC values were fit to a 4 parameter logistic curve and the IC50 value is point where the curve crosses 50 POC.
A word on the IC50: it is the concentration that inhibits the measured activity by half. For the molecule `CCNc1cc2c(cn1)c(-c1cnn(C)c1)nn2[C@H]1CC[C@@H](Oc2ccc(=O)n(CCOC)n2)CC1` [Example 13, 6-(((1s,4s)-4-(6-(ethylamino)-3-(1-methyl-1H-pyrazol-4-yl)-1H-pyrazolo[4,3-c]pyridin-1-yl)cyclohexyl)oxy)-2-(2-methoxyethyl)pyridazin-3(2H)-one], the IC50 was 1000 to 10000 nM.
The same measure for `CCn1nc(O[C@H]2CC[C@@H](n3nc(-c4cnn(C)c4)c4cnc(NC)cc43)CC2)ccc1=O` [Example 14, 2-ethyl-6-(((1s,4s)-4-(3-(1-methyl-1H-pyrazol-4-yl)-6-(methylamino)-1H-pyrazolo[4,3-c]pyridin-1-yl)cyclohexyl)oxy)pyridazin-3(2H)-one]: 1000 to 10000 nM; for `CNc1cc2c(cn1)c(-c1cnn(C)c1)nn2[C@H]1CC[C@@H](Oc2ccc(=O)n(CC(C)C)n2)CC1` [Example 16, 2-isobutyl-6-(((1s,4s)-4-(3-(1-methyl-1H-pyrazol-4-yl)-6-(methylamino)-1H-pyrazolo[4,3-c]pyridin-1-yl)cyclohexyl)oxy)pyridazin-3(2H)-one]: 1000 to 10000 nM.
Turning to `CNc1cc2c(cn1)c(-c1cnn(C)c1)nn2[C@H]1CC[C@@H](Oc2ccc(=O)n(CCOC)n2)CC1` [Example 17, 2-(2-methoxyethyl)-6-(((1s,4s)-4-(3-(1-methyl-1H-pyrazol-4-yl)-6-(methylamino)-1H-pyrazolo[4,3-c]pyridin-1-yl)cyclohexyl)oxy)pyridazin-3(2H)-one], the IC50 was 1000 to 10000 nM.
As to `CNc1cc2c(cn1)c(-c1cnn(C)c1)nn2[C@H]1CC[C@@H](Oc2ccc(=O)n(CCN(C)C)n2)CC1` [Example 18, 2-(2-(dimethylamino)ethyl)-6-(((1s,4s)-4-(3-(1-methyl-1H-pyrazol-4-yl)-6-(methylamino)-1H-pyrazolo[4,3-c]pyridin-1-yl)cyclohexyl)oxy)pyridazin-3(2H)-one], the half-maximal inhibitory concentration (IC50) lay in the range of 1000 to 10000 nM.
The value for `CNc1cc2c(cn1)c(-c1cnn(C)c1)nn2[C@H]1CC[C@@H](Oc2ccc(=O)n(Cc3ccc(OC)cc3)n2)CC1` [Example 20, 2-(4-methoxybenzyl)-6-(((1s,4s)-4-(3-(1-methyl-1H-pyrazol-4-yl)-6-(methylamino)-1H-pyrazolo[4,3-c]pyridin-1-yl)cyclohexyl)oxy)pyridazin-3(2H)-one] was 1000 to 10000 nM; that for `CNc1cc2c(cn1)c(-c1cnn(C)c1)nn2[C@H]1CC[C@@H](Oc2ccc(=O)[nH]n2)CC1` [Example 21, 6-(((1s,4s)-4-(3-(1-methyl-1H-pyrazol-4-yl)-6-(methylamino)-1H-pyrazolo[4,3-c]pyridin-1-yl)cyclohexyl)oxy)pyridazin-3(2H)-one] was 1000 to 10000 nM.
As for `CNc1cc2c(cn1)c(-c1cnn(C)c1)nn2[C@H]1CC[C@@H](Oc2ccn(C)c(=O)c2)CC1` [Example 24, 1-methyl-4-(((1s,4s)-4-(3-(1-methyl-1H-pyrazol-4-yl)-6-(methylamino)-1H-pyrazolo[4,3-c]pyridin-1-yl)cyclohexyl)oxy)pyridin-2(1H)-one], the IC50 was less than 10 nM.
The same measure for `CNc1cc2c(cn1)c(-c1cnc(N3CCOCC3)nc1)nn2[C@H]1CC[C@@H](Oc2ccc(=O)n(C)n2)CC1` [Example 51, 2-methyl-6-(((1s,4s)-4-(6-(methylamino)-3-(2-morpholinopyrimidin-5-yl)-1H-pyrazolo[4,3-c]pyridin-1-yl)cyclohexyl)oxy)pyridazin-3(2H)-one]: 1000 to 10000 nM.
The same measure for `CNc1cc2c(cn1)c(-c1cncc(C(F)(F)F)c1)nn2[C@H]1CC[C@@H](Oc2ccc(=O)n(C)n2)CC1` [Example 52, 2-methyl-6-(((1s,4s)-4-(6-(methylamino)-3-(5-(trifluoromethyl)pyridin-3-yl)-1H-pyrazolo[4,3-c]pyridin-1-yl)cyclohexyl)oxy)pyridazin-3(2H)-one]: 1000 to 10000 nM; for `CCNc1cc2c(cn1)c(-c1cnn(C(C)(C)C#N)c1)nn2[C@H]1CC[C@@H](Oc2ccc(=O)n(CC)n2)CC1` [Example 57, 2-(4-(1-((1s,4s)-4-((1-ethyl-6-oxo-1,6-dihydropyridazin-3-yl)oxy)cyclohexyl)-6-(ethylamino)-1H-pyrazolo[4,3-c]pyridin-3-yl)-1H-pyrazol-1-yl)-2-methylpropanenitrile]: 1000 to 10000 nM; for `CCNc1cc2c(cn1)c(-c1ccc(CN3CC(F)C3)cc1)nn2[C@H]1CC[C@@H](Oc2ccc(=O)n(C)n2)CC1` [Example 62, 6-(((1s,4s)-4-(6-(ethylamino)-3-(4-((3-fluoroazetidin-1-yl)methyl)phenyl)-1H-pyrazolo[4,3-c]pyridin-1-yl)cyclohexyl)oxy)-2-methylpyridazin-3(2H)-one]: 1000 to 10000 nM.
As to `Cn1cc(-c2nn([C@H]3CC[C@@H](Oc4ccc(=O)n(C)n4)CC3)c3cc(Nc4cccc(F)c4)ncc23)cn1` [Example 66], the IC50 was less than 10 nM.
The value for `CNc1cc2c(cn1)c(-c1ccn(C)n1)cn2[C@H]1CC[C@@H](Oc2ccc(=O)n(C)n2)CC1` [Example 74, 2-methyl-6-(((1s,4s)-4-(3-(1-methyl-1H-pyrazol-3-yl)-6-(methylamino)-1H-pyrrolo[3,2-c]pyridin-1-yl)cyclohexyl)oxy)pyridazin-3(2H)-one] was 1000 to 10000 nM; that for `CNc1cc2c(cn1)c(-c1cnn(C)c1)nn2[C@H]1CC[C@@H](Oc2cc(=O)cnn2C)CC1` [Example 114, 1-methyl-6-(((1s,4s)-4-(3-(1-methyl-1H-pyrazol-4-yl)-6-(methylamino)-1H-pyrazolo[4,3-c]pyridin-1-yl)cyclohexyl)oxy)pyridazin-4(1H)-one] was 1000 to 10000 nM; that for `CNc1cc2c(cn1)c(-c1ccc(F)cc1)nn2[C@H]1CC[C@@H](Oc2ccccn2)CC1` [Example 118, 3-(4-fluorophenyl)-N-methyl-1-((1s,4s)-4-(pyridin-2-yloxy)cyclohexyl)-1H-pyrazolo[4,3-c]pyridin-6-amine] was 1000 to 10000 nM.
Turning to `CNc1cc2c(cn1)c(-c1cnn(C)c1)nn2[C@H]1CC[C@H](Oc2cccnn2)CC1` [Example 119, N-methyl-3-(1-methyl-1H-pyrazol-4-yl)-1-((1r,4r)-4-(pyridazin-3-yloxy)cyclohexyl)-1H-pyrazolo[4,3-c]pyridin-6-amine], the IC50 is 1000 to 10000 nM.
As to `CNc1cc2c(cn1)c(-c1cnn(C)c1)nn2[C@H]1CC[C@@H](Oc2cccnn2)CC1` [Example 120, N-methyl-3-(1-methyl-1H-pyrazol-4-yl)-1-((1s,4s)-4-(pyridazin-3-yloxy)cyclohexyl)-1H-pyrazolo[4,3-c]pyridin-6-amine], the IC50 was 1000 to 10000 nM.
Take `CNc1cc2c(cn1)c(-c1cnn(C)c1)nn2[C@H]1CC[C@H](Oc2ccnc(C)c2)CC1` [Example 121, N-methyl-3-(1-methyl-1H-pyrazol-4-yl)-1-((1r,4r)-4-((2-methylpyridin-4-yl)oxy)cyclohexyl)-1H-pyrazolo[4,3-c]pyridin-6-amine]: the IC50 lay within 1000 to 10000 nM.
The same measure for `CNc1cc2c(cn1)c(-c1cnn(C)c1)nn2[C@H]1CC[C@@H](Oc2ccc(OC)nn2)CC1` [Example 123, 1-((1s,4s)-4-((6-methoxypyridazin-3-yl)oxy)cyclohexyl)-N-methyl-3-(1-methyl-1H-pyrazol-4-yl)-1H-pyrazolo[4,3-c]pyridin-6-amine]: 1000 to 10000 nM; for `CNc1cc2c(cn1)c(-c1cnn(C)c1)nn2[C@H]1CC[C@@H](Oc2nccc(C)n2)CC1` [Example 126, N-methyl-3-(1-methyl-1H-pyrazol-4-yl)-1-((1s,4s)-4-((4-methylpyrimidin-2-yl)oxy)cyclohexyl)-1H-pyrazolo[4,3-c]pyridin-6-amine]: 1000 to 10000 nM.
The same measure for `CNc1cc2c(cn1)c(-c1cnn(C)c1)nn2[C@H]1CC[C@@H](Oc2ccc(C#N)cn2)CC1` [Example 127, 6-(((1s,4s)-4-(3-(1-methyl-1H-pyrazol-4-yl)-6-(methylamino)-1H-pyrazolo[4,3-c]pyridin-1-yl)cyclohexyl)oxy)nicotinonitrile]: 1000 to 10000 nM.
The same measure for `CNc1cc2c(cn1)c(-c1cnn(C)c1)nn2[C@H]1CC[C@@H](Oc2ccc(OC)nc2)CC1` [Example 130, 1-((1s,4s)-4-((6-methoxypyridin-3-yl)oxy)cyclohexyl)-N-methyl-3-(1-methyl-1H-pyrazol-4-yl)-1H-pyrazolo[4,3-c]pyridin-6-amine]: 1000 to 10000 nM; for `CNc1cc2c(cn1)c(-c1cnn(C)c1)nn2[C@H]1CC[C@@H](Oc2ccc(OCc3ccccc3)nc2)CC1` [Example 131, 1-((1s,4s)-4-((6-(benzyloxy)pyridin-3-yl)oxy)cyclohexyl)-N-methyl-3-(1-methyl-1H-pyrazol-4-yl)-1H-pyrazolo[4,3-c]pyrdin-6-amine]: 1000 to 10000 nM.
With `CNc1cc2c(cn1)c(-c1cnn(C)c1)nn2[C@H]1CC[C@@H](Oc2cncnc2)CC1` [Example 141, N-methyl-3-(1-methyl-1H-pyrazol-4-yl)-1-((1s,4s)-4-(pyrimidin-5-yloxy)cyclohexyl)-1H-pyrazolo[4,3-c]pyridin-6-amine], the IC50 is 1000 to 10000 nM.
The value for `CNc1cc2c(cn1)c(-c1cnn(C)c1)nn2C1CCC(Oc2cc(N(C)C)cnn2)CC1` (stereo not shown) [Example 154, 1-((1s,4s)-4-((5-(dimethylamino)pyridazin-3-yl)oxy)cyclohexyl)-N-methyl-3-(1-methyl-1H-pyrazol-4-yl)-1H-pyrazolo[4,3-c]pyridin-6-amine] was 1000 to 10000 nM.
On to `CNc1cc2c(cn1)c(-c1cnn(C)c1)nn2[C@H]1CC[C@@H](Oc2cccc(C(F)(F)F)n2)CC1` [Example 174, N-methyl-3-(1-methyl-1H-pyrazol-4-yl)-1-((1s,4s)-4-((6-(trifluoromethyl)pyridin-2-yl)oxy)cyclohexyl)-1H-pyrazolo[4,3-c]pyridin-6-amine], for which the 50% inhibitory concentration (IC50) is 1000 to 10000 nM.
The same measure for `CNc1cc2c(cn1)c(-c1cnn(C)c1)nn2[C@H]1CC[C@@H](Oc2nc(C)ncc2OC)CC1` [Example 176, 1-((1s,4s)-4-((5-methoxy-2-methylpyrimidin-4-yl)oxy)cyclohexyl)-N-methyl-3-(1-methyl-1H-pyrazol-4-yl)-1H-pyrazolo[4,3-c]pyridin-6-amine]: 1000 to 10000 nM.

The values above are taken from patent US11247990B1, “Bicyclic fused pyridine compounds as inhibitors of TAM kinases” (ARRAY BIOPHARMA INC., priority 2017, dated 2022).
